Measurements reported in paper PMC8972805, “Monomodular Pseudomonas aeruginosa phage JG004 lysozyme (Pae87) contains a bacterial surface-active antimicrobial peptide-like region and a possible substrate-binding subdomain” (Acta Crystallographica. Section D, Structural Biology, 2022).

Molecular target: T1, Pae87 (Pseudomonas phage JG004, UniProt F4YDQ3)
T1 construct: gene PJG4_087; full length, 186 residues, N-terminal 6xHis tag (pET-28a(+), tag kept, up to two tag residues modelled), synthetic gene, expressed in E. coli BL21(DE3); one molecule in asymmetric unit of the complex
T1 sequence (F4YDQ3 entry or part of it): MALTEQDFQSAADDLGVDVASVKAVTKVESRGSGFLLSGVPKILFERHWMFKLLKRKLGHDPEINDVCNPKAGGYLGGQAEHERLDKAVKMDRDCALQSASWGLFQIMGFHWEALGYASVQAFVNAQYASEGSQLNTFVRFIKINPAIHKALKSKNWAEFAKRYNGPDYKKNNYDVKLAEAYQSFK
Assay: X-ray crystal structure of complex, […] Å
Format: binding
Details: fragment from PAO1 peptidoglycan hydrolysed by Pae87; second site about 18 Å from catalytic site (helices 4, 5 and 7); Tris-HCl pH 8.0, PEG MME 5000

In the case of `CC(=O)N[C@H]1[C@H](O[C@H]2[C@H](O[C@H](C)C(=O)N[C@@H](C)C(=O)N[C@H](CCC(=O)O)C(=O)O)[C@@H](NC(C)=O)C(O)O[C@@H]2CO)O[C@H](CO)[C@@H](O)[C@@H]1O` (stereo partly shown) [peptidoglycan fragment], the “X-ray crystal structure of complex, 1.27 Å” value is reported as “the peptidoglycan fragment (comprised of linked NAG, MurNAc, L-alanine”.
